Reference: ChEMBL document CHEMBL3259798, “A novel Lipoprotein lipase (LPL) agonist rescues the enzyme from inhibition by angiopoietin-like 4 (ANGPTL4)” (Bioorg Med Chem Lett, 2014)
Activity calls are given as the source filed them. No cut-off for these calls is given here.

Legend:
[1] = molecular target: T1, Lipoprotein lipase (Homo sapiens) (UniProt P06858); assay: Agonist activity at lipoprotein lipase (unknown origin) using p-nitrophenylbutyrate as substrate at 40 uM by spectrophotometric analysis
T1 sequence (whole entry): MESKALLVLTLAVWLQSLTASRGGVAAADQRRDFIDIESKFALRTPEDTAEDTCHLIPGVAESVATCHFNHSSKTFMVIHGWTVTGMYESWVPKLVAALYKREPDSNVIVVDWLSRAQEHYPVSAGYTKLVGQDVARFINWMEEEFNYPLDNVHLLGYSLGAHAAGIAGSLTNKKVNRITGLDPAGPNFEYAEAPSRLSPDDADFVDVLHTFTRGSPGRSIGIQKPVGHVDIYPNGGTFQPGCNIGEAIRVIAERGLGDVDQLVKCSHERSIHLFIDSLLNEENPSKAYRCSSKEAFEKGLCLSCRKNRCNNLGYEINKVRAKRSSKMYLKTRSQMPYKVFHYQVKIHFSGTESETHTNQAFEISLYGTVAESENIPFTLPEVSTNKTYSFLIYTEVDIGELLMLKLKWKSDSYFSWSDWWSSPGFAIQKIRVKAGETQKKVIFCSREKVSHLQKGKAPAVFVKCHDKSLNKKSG

[2] = molecular target: T1, Lipoprotein lipase (Homo sapiens); assay: Agonist activity at lipoprotein lipase (unknown origin) using p-nitrophenylbutyrate as substrate by spectrophotometric analysis
[3] = molecular target: T1, Lipoprotein lipase (Homo sapiens); assay: Agonist activity at lipoprotein lipase (unknown origin) using p-nitrophenylbutyrate as substrate by spectrophotometric analysis relative to control; set-up: concentration or dose not given beside the values
[4] = molecular target: T1, Lipoprotein lipase (Homo sapiens); assay: Activation of lipoprotein lipase (unknown origin) assessed as reversal of ANGPTL4-mediated enzyme inhibition treated with ANGPTL4 for 30 mins followed by substrate addition measured after 20 mins by spectrophotometric analysis
[5] = molecular target: T1, Lipoprotein lipase (Homo sapiens); assay: Agonist activity at lipoprotein lipase (unknown origin) using p-nitrophenylbutyrate as substrate by spectrophotometric analysis relative to NO-1886

Structure (SMILES) | Activity [1] | Activity [2] | Activity [3] | Activity [4] | fold change (FC) [5]
CC1(C(=O)NCCCn2ccnc2)CC1(Cl)Cl (configuration not stated) | Active | Dose-dependent effect | 196% | Dose-dependent effect | 
CC1(C(=O)NCCCn2cnc(Cl)c2)CC1(Br)Br (configuration not stated) |  |  | 122% |  | 
Cc1cn(CCCNC(=O)C2(C)CC2(Br)Br)cn1 (configuration not stated) |  |  | 113% |  | 
CCOP(=O)(Cc1ccc(C(=O)Nc2ccc(Br)cc2C#N)cc1)OCC |  |  | 170% | inactive | 
CC1(C(=O)NCCCN2CCOCC2)CC1(Br)Br (configuration not stated) |  |  | 130% |  | 
CC1(C)CC1(C(=O)NCCCn1ccnc1)c1ccc(F)cc1 (configuration not stated) |  |  | 342% | Dose-dependent effect | 2
